In experiment [1] the target is T1, Alpha-1A adrenergic receptor (Homo sapiens, UniProt P35348).
T1 sequence (P35348 whole entry): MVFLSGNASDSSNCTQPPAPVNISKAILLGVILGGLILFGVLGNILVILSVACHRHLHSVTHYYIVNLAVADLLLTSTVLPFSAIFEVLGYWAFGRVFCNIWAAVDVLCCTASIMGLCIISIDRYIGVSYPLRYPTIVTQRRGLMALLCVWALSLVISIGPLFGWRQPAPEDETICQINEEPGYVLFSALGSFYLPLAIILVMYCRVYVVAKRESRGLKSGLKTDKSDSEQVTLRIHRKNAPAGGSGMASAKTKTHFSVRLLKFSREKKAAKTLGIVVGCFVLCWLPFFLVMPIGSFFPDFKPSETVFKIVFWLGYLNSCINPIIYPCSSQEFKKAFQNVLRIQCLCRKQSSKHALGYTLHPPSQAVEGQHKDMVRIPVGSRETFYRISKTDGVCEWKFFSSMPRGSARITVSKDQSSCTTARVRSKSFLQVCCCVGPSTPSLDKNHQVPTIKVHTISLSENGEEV
Type of experiment: functional, cell-based.

Experiment [2] addresses Glutamate receptor ionotropic, NMDA 1 (Rattus norvegicus, UniProt P35439).
In experiment [3] the target is 5-hydroxytryptamine receptor 2A (Homo sapiens, UniProt P28223). In kind it is functional, cell-based.
5-hydroxytryptamine receptor 2A, sequence (P28223 whole entry): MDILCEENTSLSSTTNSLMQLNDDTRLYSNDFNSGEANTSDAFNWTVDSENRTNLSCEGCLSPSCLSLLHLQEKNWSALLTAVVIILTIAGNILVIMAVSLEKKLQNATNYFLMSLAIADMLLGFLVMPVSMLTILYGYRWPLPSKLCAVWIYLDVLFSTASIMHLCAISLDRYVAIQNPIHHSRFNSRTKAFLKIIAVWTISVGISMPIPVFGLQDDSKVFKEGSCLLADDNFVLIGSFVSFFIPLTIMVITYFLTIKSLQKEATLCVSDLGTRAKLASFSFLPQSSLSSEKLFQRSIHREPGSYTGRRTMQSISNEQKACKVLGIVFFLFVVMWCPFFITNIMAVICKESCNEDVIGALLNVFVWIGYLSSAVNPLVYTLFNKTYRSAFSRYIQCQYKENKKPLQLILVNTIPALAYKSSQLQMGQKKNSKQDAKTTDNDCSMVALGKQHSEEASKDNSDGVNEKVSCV
In experiment [4] the target is T2, Neuropeptide Y receptor type 1 (Homo sapiens, UniProt P25929).
T2 sequence (P25929 whole entry): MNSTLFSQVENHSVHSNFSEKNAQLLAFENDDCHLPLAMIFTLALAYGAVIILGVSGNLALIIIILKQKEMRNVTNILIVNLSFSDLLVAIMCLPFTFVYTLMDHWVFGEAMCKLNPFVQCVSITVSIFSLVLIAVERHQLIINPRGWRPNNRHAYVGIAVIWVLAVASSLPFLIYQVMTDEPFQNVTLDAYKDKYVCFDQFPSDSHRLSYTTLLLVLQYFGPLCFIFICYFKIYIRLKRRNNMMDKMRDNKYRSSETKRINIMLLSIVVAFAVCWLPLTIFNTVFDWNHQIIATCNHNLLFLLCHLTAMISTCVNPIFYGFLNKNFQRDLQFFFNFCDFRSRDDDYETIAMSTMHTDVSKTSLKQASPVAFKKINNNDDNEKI

Another experiment deals with Histamine H2 receptor (Homo sapiens, UniProt P25021). In kind it is functional, cell-based.
Histamine H2 receptor, sequence (P25021 whole entry): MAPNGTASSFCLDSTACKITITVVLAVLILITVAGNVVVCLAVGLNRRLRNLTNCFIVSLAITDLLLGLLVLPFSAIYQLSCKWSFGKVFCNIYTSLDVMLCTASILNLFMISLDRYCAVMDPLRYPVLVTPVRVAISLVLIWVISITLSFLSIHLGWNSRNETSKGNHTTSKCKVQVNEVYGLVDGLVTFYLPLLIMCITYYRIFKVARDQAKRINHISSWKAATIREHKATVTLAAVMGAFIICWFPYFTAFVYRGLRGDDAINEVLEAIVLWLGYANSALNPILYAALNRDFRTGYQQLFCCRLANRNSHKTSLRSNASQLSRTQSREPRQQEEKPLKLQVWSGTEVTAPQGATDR
Another experiment addresses Melanocortin receptor 4 (Homo sapiens, UniProt P32245).
The target of experiment [5] is T3, Amine oxidase [flavin-containing] A (Homo sapiens, UniProt P21397).
T3 sequence (P21397 whole entry): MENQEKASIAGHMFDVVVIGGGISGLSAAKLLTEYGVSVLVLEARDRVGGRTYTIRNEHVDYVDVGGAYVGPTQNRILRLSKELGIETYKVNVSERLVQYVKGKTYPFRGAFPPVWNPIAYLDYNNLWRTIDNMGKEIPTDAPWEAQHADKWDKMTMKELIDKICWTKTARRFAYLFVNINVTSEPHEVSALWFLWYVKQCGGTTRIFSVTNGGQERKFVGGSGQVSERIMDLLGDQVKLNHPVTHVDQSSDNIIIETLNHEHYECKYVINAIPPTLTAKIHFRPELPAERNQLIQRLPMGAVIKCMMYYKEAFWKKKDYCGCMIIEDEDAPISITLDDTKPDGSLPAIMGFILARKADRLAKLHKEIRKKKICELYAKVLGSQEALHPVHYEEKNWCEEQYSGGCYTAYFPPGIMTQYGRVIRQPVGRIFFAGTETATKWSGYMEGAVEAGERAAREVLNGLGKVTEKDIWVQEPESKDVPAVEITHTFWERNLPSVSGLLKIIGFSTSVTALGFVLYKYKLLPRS
In kind it is functional.

Experiment [6] addresses T4, Alpha-2A adrenergic receptor (Homo sapiens, UniProt P08913).
T4 sequence (P08913 whole entry): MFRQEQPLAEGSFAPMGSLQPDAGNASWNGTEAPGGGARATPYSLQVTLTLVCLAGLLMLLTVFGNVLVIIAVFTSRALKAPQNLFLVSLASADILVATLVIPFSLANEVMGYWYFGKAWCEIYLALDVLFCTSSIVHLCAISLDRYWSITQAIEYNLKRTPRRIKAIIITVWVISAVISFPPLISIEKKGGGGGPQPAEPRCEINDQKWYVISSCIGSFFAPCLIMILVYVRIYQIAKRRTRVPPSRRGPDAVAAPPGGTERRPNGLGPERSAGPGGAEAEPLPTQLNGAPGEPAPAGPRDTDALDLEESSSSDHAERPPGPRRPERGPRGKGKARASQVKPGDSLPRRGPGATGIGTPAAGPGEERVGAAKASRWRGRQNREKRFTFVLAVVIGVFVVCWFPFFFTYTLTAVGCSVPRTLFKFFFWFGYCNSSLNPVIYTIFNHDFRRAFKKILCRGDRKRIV

For experiment [7], the target named is T1, Alpha-1A adrenergic receptor. Type of experiment: functional, cell-based. This is another data set of the same source.
A further experiment deals with T5, Thromboxane A2 receptor (Homo sapiens, UniProt P21731).
T5 sequence (P21731 whole entry): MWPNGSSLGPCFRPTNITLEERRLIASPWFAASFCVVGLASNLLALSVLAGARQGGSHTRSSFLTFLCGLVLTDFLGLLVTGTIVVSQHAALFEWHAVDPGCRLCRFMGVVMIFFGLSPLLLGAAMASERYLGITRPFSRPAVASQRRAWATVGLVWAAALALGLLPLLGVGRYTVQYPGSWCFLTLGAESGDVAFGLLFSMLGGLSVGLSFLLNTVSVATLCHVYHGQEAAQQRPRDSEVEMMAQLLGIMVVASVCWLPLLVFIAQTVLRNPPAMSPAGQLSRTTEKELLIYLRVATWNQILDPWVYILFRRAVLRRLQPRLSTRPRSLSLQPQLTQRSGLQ
In kind it is functional, cell-based.

The structures appear in SMILES notation.

The term AC50 denotes the midpoint of the concentration-response curve, whichever way the signal moves. Lower therefore signals greater potency.
Note: assay procedure not described here.

Melanocortin receptor 4, sequence (P32245 whole entry): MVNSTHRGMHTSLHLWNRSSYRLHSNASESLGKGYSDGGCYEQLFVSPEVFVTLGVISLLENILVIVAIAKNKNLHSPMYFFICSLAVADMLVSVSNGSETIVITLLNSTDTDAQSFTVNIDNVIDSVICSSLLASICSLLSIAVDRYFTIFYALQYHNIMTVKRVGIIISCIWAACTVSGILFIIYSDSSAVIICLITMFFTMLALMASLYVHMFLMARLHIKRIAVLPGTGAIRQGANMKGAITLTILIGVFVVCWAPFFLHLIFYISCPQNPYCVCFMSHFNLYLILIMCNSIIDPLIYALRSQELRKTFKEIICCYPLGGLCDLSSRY

Consider `CCCCN1C[C@H](O)[C@@H](O)[C@H](O)[C@H]1CO`, for which the AC50 (in experiment [1]; in [2]; in experiment [3]; in experiment [4]; on Histamine H2 receptor) was > 30 µM throughout.

As to `CCOC(=O)[C@H](CCc1ccccc1)N[C@@H](C)C(=O)N1[C@H](C(=O)O)C[C@@H]2CCC[C@@H]21`, the AC50 is > 30 µM in experiment [1]; > 10 µM in experiment [2]; > 30 µM in experiment [4]; > 10 µM on Histamine H2 receptor; > 30 µM at Melanocortin receptor 4.

Consider `Nc1nc(NC2CC2)c2ncn([C@H]3C=C[C@@H](CO)C3)c2n1` [ABACAVIR], for which the AC50 (in [1]; in [2]; in experiment [3]; in [4]; on Histamine H2 receptor) was > 30 µM each time.

`CC(=O)NCCCS(=O)(=O)O` [ACAMPROSATE]: the AC50 (in [1]; in experiment [3]; in experiment [4]; on Histamine H2 receptor) was > 30 µM in each case.

As for `CC(=O)Nc1ccc(O)cc1` [ACETAMINOPHEN], the AC50 in experiment [5] is > 10 µM; in experiment [1], > 30 µM; in [6] it was > 30 µM; in experiment [7], > 30 µM; on Thromboxane A2 receptor, > 30 µM.

`CCCSc1ccc2nc(NC(=O)OC)[nH]c2c1` [ALBENDAZOLE]: the concentration at half-maximal activity (AC50) (in experiment [2]; in experiment [4]; on Histamine H2 receptor; on Melanocortin receptor 4) was > 10 µM throughout.

Regarding `COc1cc2nc(N(C)CCCNC(=O)C3CCCO3)nc(N)c2cc1OC` (configuration not stated) [ALFUZOSIN], the AC50 (in [2]; in experiment [3]; in experiment [4]; on Histamine H2 receptor) was > 30 µM in each case.

`C=CCc1ccccc1OCC(O)CNC(C)C` (configuration not stated) [ALPRENOLOL]: the AC50 in experiment [5] is > 0.3 µM; in experiment [1] it was > 30 µM; in [6] it was > 0.3 µM; in experiment [7] it was > 0.3 µM; in experiment [2], > 30 µM; on Thromboxane A2 receptor, > 0.3 µM. In addition, the AC50 (in [3]; in experiment [4]; on Histamine H2 receptor) was > 30 µM each time.

Turning to `CNC(=O)c1ccccc1Sc1ccc2c(/C=C/c3ccccn3)n[nH]c2c1` [AXITINIB], the AC50 in [1] and in [3] was > 30 µM each time.

Turning to `CN(C)/N=N/c1[nH]cnc1C(N)=O` [DACARBAZINE], the AC50 (in experiment [2]; in experiment [4]; at Histamine H2 receptor; at Melanocortin receptor 4) was > 10 µM throughout.

As to `O=C(Cc1ccc(-c2ccccc2)cc1)Nc1ccccn1` [DIFENPIRAMIDE], the AC50 (in experiment [5]; in experiment [1]; in [6]; in experiment [7]; in experiment [2]; at Thromboxane A2 receptor) was > 30 µM each time. Further, the AC50 (in experiment [3]; at Histamine H2 receptor) was > 30 µM throughout.

Regarding `O=C(OCC(O)CO)c1ccccc1Nc1ccnc2cc(Cl)ccc12` (configuration not stated) [GLAFENINE], the concentration at half-maximal activity (AC50) (in [5]; in experiment [1]; in experiment [6]; in experiment [7]; on Thromboxane A2 receptor; in experiment [3]) was > 30 µM throughout.

As to `O=P1(NCCCl)OCCCN1CCCl` (configuration not stated) [IFOSFAMIDE], the AC50 (in [2]; in experiment [4]; on Histamine H2 receptor; at Melanocortin receptor 4) was > 30 µM each time.

`CNC1Cc2ccccc2N(C)c2ccccc21` (configuration not stated) [METAPRAMINE]: the AC50 in experiment [1] is > 30 µM; in experiment [3], 14 µM.

With `Clc1ccc(C(c2ccccc2Cl)C(Cl)Cl)cc1` (configuration not stated) [MITOTANE], the AC50 (in [2]; in experiment [4]; at Histamine H2 receptor; at Melanocortin receptor 4) was > 10 µM each time.

Regarding `Cc1nc([N+](=O)[O-])cn1-c1ccc([N+](=O)[O-])cc1` [NITREFAZOLE], the AC50 (in experiment [1]; in experiment [2]; in experiment [3]; in experiment [4]; on Histamine H2 receptor) was > 30 µM each time.

For `CC[C@H]1[C@@H](O)[C@@H]2[C@H](CC[C@]3(C)[C@@H]([C@H](C)CCC(=O)O)CC[C@@H]23)[C@@]2(C)CC[C@@H](O)C[C@@H]12` [OBETICHOLIC ACID], the half-maximal activity concentration (AC50) (in [5]; in [1]; in experiment [6]; in experiment [7]; in experiment [2]; at Thromboxane A2 receptor) was > 30 µM throughout. Moreover, the AC50 in experiment [3] was 11.5 µM; in experiment [4] it was > 30 µM; on Histamine H2 receptor it was > 30 µM.

Consider `COc1ccc(CC(C)(C)NC[C@H](O)c2cc(O)cc3c2OCC(=O)N3)cc1` [OLODATEROL], for which the AC50 in [1] is > 30 µM; in experiment [3], 12.8 µM.

With `CN(C)S(=O)(=O)c1ccc2c(c1)N(CCCN1CCC(CCO)CC1)c1ccccc1S2` [PIPOTIAZINE], the AC50 in experiment [5] was > 30 µM; in [6], 0.313 µM; in [7] it was > 30 µM; at Thromboxane A2 receptor, 15.7 µM.

Take `c1cnc(N2CCN(Cc3ccc4c(c3)OCO4)CC2)nc1` [PIRIBEDIL]: the AC50 in experiment [1] and in experiment [3] was > 30 µM throughout.

On to `COCCCN1CCC(NC(=O)c2cc(Cl)c(N)c3c2OCC3)CC1` [PRUCALOPRIDE], for which the AC50 (in experiment [5]; in experiment [1]; in experiment [6]; in experiment [7]; at Thromboxane A2 receptor; in experiment [3]) was > 30 µM each time.

For the compound `CCC(=O)NCC[C@@H]1CCc2ccc3c(c21)CCO3` [RAMELTEON], the half-maximal activity concentration (AC50) (in experiment [5]; in [6]; in experiment [7]; at Thromboxane A2 receptor) was > 30 µM each time.

Take `COc1ccccc1OCC(O)CN1CCN(CC(=O)Nc2c(C)cccc2C)CC1` (configuration not stated) [RANOLAZINE]: the AC50 (in experiment [1]; in experiment [2]; in experiment [3]; in [4]; on Histamine H2 receptor) was > 30 µM each time.

Take `CCOC(=O)[C@H](CCc1ccccc1)N[C@@H](C)C(=O)N1[C@H](C(=O)O)C[C@H]2CCCC[C@@H]21` [TRANDOLAPRIL]: the AC50 (in [5]; in [6]; in experiment [7]; on Thromboxane A2 receptor) was > 30 µM throughout.

(Values after ChEMBL document CHEMBL5291721, “A preclinical secondary pharmacology resource illuminates target-adverse drug reaction associations of marketed drugs” (Nat Commun, 2023).)
